Values joined by “and” are separate entries in the source; they are usually repeats but may differ in a detail not shown here. Equal entries are not always repeated.
Tests used:
[1] = parameters: method as in PMID 29437671; details: standardized Franz cell system; cited from earlier work
[2] = Particle sizing by SEM image analysis; format: physicochemical
Description: The particle size and surface morphology of raw resatorvid were obtained using scanning electron microscopy (SEM) (FEI, Brno, Czech Republic). The samples were sprinkled onto the double-sided adhesive carbon tabs (Ted Patella, Inc. Redding, CA, USA), which were adhered to aluminum stubs and coated with a 7 nm thin film of gold palladium alloy, using an Anatech Hummer 6.2 (Union City, CA, USA) sputtering system at 20 µA for 90 s under an argon plasma. The electron beam with an accelerating voltage of 30 kV was used at a working distance of approximately 9–12 mm. The SEM images were collected at various magnifications.
Using SEM micrographs, the mean size, standard deviation, and size range of the particles were determined digitally using SigmaScan^TM Pro 5.0.0 (Systat, Inc., San Jose, CA, USA). Representative micrographs of raw resatorvid at 400–5000× magnification were analyzed by measuring the diameter of at least 60 particles per sampling.

[3] = In vitro oil-water partitioning coefficient (Log-P), 1-octanol/PBS, HPLC; format: physicochemical; details: for Experimental (Log-P): n = 3, mean ± SD; for partition coefficient (Log-P), range over pH: pH 6.5, 7.1, 8.8
Method: The HPLC consisted of a Shimadzu LC-2010A HT liquid chromatograph (Torrance, CA, USA), coupled with a UV–Vis dual wavelength detector. The analysis was performed by a reverse-phase HPLC assay, using a Luna C18, 5 μm column (250 mm × 2 mm) (Phenomenex, Torrance, CA, USA), maintained at 25 °C ± 2 °C. Ultraviolet detection was done at 254 nm. The mobile phase conditions were 50:50 (v/v) acetonitrile: trifluoroacetic acid (0.1% v/v) at a flow rate of 0.3 mL/min. The injection volume was 10 µL. The retention time for resatorvid was ~15.9 min. Quantification was determined using peak area and calculated from a five-point standard curve (0.0625 mg/mL to 1 mg/mL, R^2 = 0.9971). Standards were prepared by volumetric dilution in acetonitrile and stored at 4 °C, protected from light. The modifications made to the method were using a column length of 250 mm × 2 mm instead of 150 mm × 2.1 mm and a mobile phase of 50:50 (v/v) acetonitrile: trifluoroacetic acid (0.1% v/v) instead of 40:60 (v/v) acetonitrile: trifluoroacetic acid (0.1% v/v) as previously reported.
Resatorvid raw powder was weighed out (0.003 g) and placed in 2 dram amber-colored glass vials containing equal volumes (1.5 mL) of 1-octanol and PBS (1×, pH = 7.4) to make a 1 mg/mL solution. Various solutions were made, and the pH was adjusted and maintained at pH values of 6.5, 7.1, 8.8. Adjustments to the pH were made using 0.1 M hydrochloric acid (HCl) solution and 0.1 M sodium hydroxide (NaOH) solution. […] The vials were rotated using a Barnstead/Thermolyne Labquake shaker (Dubuque, IA, USA) for 24 h and left undisturbed in a vertical position for an additional 24 h for phase separation between the aqueous and non-aqueous layers. Then, 200 μL of the organic and aqueous layers were sampled very carefully without disturbing the separation of phases and analyzed via the HPLC method previously mentioned.

[4] = tested on: primary normal human epidermal keratinocytes (NHEKs); assay: In vitro cell dose-response (resazurin viability) in 2D culture, NHEK; format: cell-based; details: 0.01-1000 µM raw resatorvid, 72 h exposure as printed in results
Method: (§1) The effects of raw resatorvid on the viability of human representative keratinocyte cell lines exposed to concentrations at 1000 μM, 100 μM, 10 μM, 1 µM, 0.1 µM, and 0.01 µM were tested. HaCaT cells (a human transformed keratinocyte from a histologically normal skin cell line) and primary NHEKs (normal human epidermal keratinocyte cells) were used as models of the human epidermis, which generates keratinocytes in the stratum basale and then differentiates into the final barrier layer of the skin, the stratum corneum. The HaCaT cells were grown in Dulbecco’s modified Eagle’s medium (DMEM), Optimized 1×, 10% (v/v) FBS, and Pen-Strep (100 units/mL penicillin, 100 µg/mL) in a humidified incubator at 37 °C and 5% CO2. The NHEK cells were grown in an NHEK growth medium provided by MatTek (Ashland, MA, USA) in a humidified incubator at 37 °C and 5% CO2.
(§2) After confluence, the HaCaT and NHEK cells were seeded in a black 96-well plate at a concentration of 5000 cells in 100 µL of media/well, then incubated for 48 h to allow attachment to the surface of the plates. After 48 h, the cells were then exposed to the different concentrations of resatorvid previously mentioned. The drug solutions were prepared by dissolving raw resatorvid powder in 5% (v/v) DMSO and adequate growth medium to make a solution at 1×. A volume of 100 µL of drug solution was added to each well. […] The fluorescence intensity of resorufin was detected at 544 nm (excitation) and 590 nm (emission) using the Molecular Devices® SpectraMax® M3 Multi-Mode Microplate Reader (Sunnyvale, CA, USA). The relative viability of the cells was calculated as followed by Equation (1):(1) Relative Viability %=Sample flourescence intensity/Control flourescece intensity×100%

[5] = as above; format: cell-based, human; details: human; all concentrations (0.01-1000 µM); read-out: viability of NHEK cells
Method: as §1, §2

[6] = Residual water content by Karl Fisher coulometric titration; format: physicochemical; details: KFT, n = 4, mean ± SD, Table S2
Method: The residual water content of raw resatorvid powder was quantified by coulometric KFT using a TitroLine 750 trace titrator (SI Analytics, Weilheim, Germany). In brief, 1 mL of 0.1% (w/v) of resatorvid in anhydrous methanol was added to the titration cell containing Hydranal® Coulomat AD reagent.

[7] = method and reference not given; cited from earlier work
[8] = In vitro cell dose-response (resazurin viability) in 2D culture, HaCaT; format: cell-based, human; details: human, HaCaT cells (transformed keratinocytes), 2D culture; concentrations at 0.01 µM and 0.1 µM
Method: as §1, §2

HaCaT cells = assay: as above; format: cell-based, human; details: for toxicity to HaCaT cells: 0.01-1000 µM raw resatorvid, 72 h exposure as printed in results
Method: as §1, §2

SKH-1 mice = tested on: SKH-1 mice; parameters: method as in PMID 29437671; details: topical, cited from earlier work

average geometric (linear) size of the raw particles [2]: 5.84 µm
Experimental (Log-P) ([3]; At 35 °C, pH = 6.5, 1-octanol/PBS): 1.65 ± 0.029
Experimental (Log-P) ([3]; At 35 °C, pH = 7.1): 1.68 and 1.68 ± 0.013
Experimental (Log-P) ([3]; At 35 °C, pH = 8.8): 0.94 ± 0.023
Experimental (Log-P) ([3]; At Room temperature/ambient temperature, pH = 6.5): 1.58 ± 0.019
Experimental (Log-P) ([3]; At Room temperature/ambient temperature, pH = 7.1): 1.54 ± 0.149
Experimental (Log-P) ([3]; At Room temperature/ambient temperature, pH = 8.8): 0.88 ± 0.060
partition coefficient (Log-P), range over pH ([3]; at 35 °C): 0.94–1.68
partition coefficient (Log-P), range over pH ([3]; at room/ambient temperature): 0.88–1.58
Residual Water content [6]: 0.0173 ± 0.0156 %w/w
SMILES: CCOC(=O)C1=CCCC[C@H]1S(=O)(=O)Nc1ccc(F)cc1Cl [resatorvid, ethyl (6R)-6-[N-(2-Chloro-4-fluorophenyl)sulfamoyl]cyclohex-1-ene-1-carboxylate]
amount of resatorvid in the lower epidermis (tape strips 4–12), average over time course [1]: 5 µg/cm^2
time remaining in the skin [1]: at least 8 hr
toxicity to NHEK cells [4]: negligible toxicity
toxicity to NHEK cells ([4]; listed as Resatorvid): did not show any significant toxicity
viability at 48 h [5]: ~100%
experimentally determined pKa reported [7]: 8.0–8.1
viability at 48 h [8]: ~100%
toxicity to HaCaT cells (HaCaT cells): negligible toxicity
toxicity to HaCaT cells (HaCaT cells; listed as Resatorvid): did not show any significant toxicity
effect on HaCaT cells at higher concentrations (HaCaT cells; concentration increased from 1 µM to 1000 µM): cell proliferation was observed
modulation of UV-induced biomarkers (SKH-1 mice; acetone solution of TAK-242 (13 mM), SKH-1 mice): successfully modulated UV-induced biomarkers
UV-induced AP-1 activation (SKH-1 mice; mice): reduces UV-induced AP-1 activation
photocarcinogenesis (SKH-1 mice; mice): inhibits photocarcinogenesis

From article PMC9026853, “Design, Physicochemical Characterization, and In Vitro Permeation of Innovative Resatorvid Topical Formulations for Targeted Skin Drug Delivery” (Pharmaceutics, 2022)
